Test results reported in PMC5237291, “Sigma-2 receptor agonist derivatives of 1-Cyclohexyl-4-[3-(5-methoxy-1,2,3,4-tetrahydronaphthalen-1-yl)propyl]piperazine (PB28) induce cell death via mitochondrial superoxide production and caspase activation in pancreatic cancer” (BMC Cancer, 2017).
Like-named read-outs stand apart in the source and are kept apart here. Values belong to the compound of their own block, whether it stands above or below them.

Tests used:
sigma-2 receptor = conditions: read-out: Affinity (Ki) σ2, cited from earlier work
Panc-1 cells = test: MTT cell viability, Panc-1; format: cell-based; conditions: Homo sapiens, 24 h treatment, viability relative to vehicle
Description: (§1) Determination of cell growth was performed using the MTT assay at 24 h. On day 1, pancreatic cancer cell lines were plated at a density of 2 × 10^4 cells/well in black clear-bottom 96-well plates for 24 h prior to treatment in a volume of 100 μL. On day 2, the cells were treated for 24 h with the various drugs concentration (1 μM-100 μM). Untreated cells served as a control. The various drug-solvents (EtOH, DMSO) were added in each control to evaluate a possible solvent cytotoxicity. After the established incubation time with drugs (24 h), MTT (0.5 mg/ml) was added to each well, and after 3–4 h incubation at 37 °C, the supernatant was removed. The formazan crystals were solubilized using 100 μl of DMSO/EtOH (1:1) and the absorbance values at 570 and 630 nm were determined on the multi-mode microplate reader (BioTek instruments, Winooski, VT). Different drug concentrations were assayed in triplicates.
(§2) Statistical analyses and data plotting were performed using GraphPad Prism software version 6.03 (San Diego, CA). Results were expressed as mean ± standard error of the mean of at least 3 biological replicates. EC50 values were calculated by curve fitting normalized viability versus drug concentration. Differences in viability, caspase-3 activity, and tumor volume were analyzed using two-way ANOVA to identify differences and confirmed with paired two tailed t-tests. Mann-Whitney test was used to compare the difference in CBC and biochemistry analyses. Kaplan-Meier survival analyses were used to assess differences between treatment groups and were compared using a log-rank test. A p-value < 0.05 was considered significant for all analyses.

Panc02 tumors = test: In vivo tumor growth and survival, Panc02 tumors in C57BL/6 mice; conditions: for Effect on tumor volume (in words): daily i.p. treatment, compared to vehicle or gemcitabine
Description: In this pre-clinical model, we utilized the Panc02 cell line, which is weakly immunogenic in C57BL/6 mice and aggressive with a subcutaneous inoculum of 1 × 10^5 cells being lethal within 6–8 weeks. In vivo studies with mice were performed to compare the effect of sigma-2 ligands with gemcitabine. Mice treated with vehicle alone (a mixture of 5% DMSO, 5% EtOH, and 10% Cremophor in H2O) served as the control cohort. Female C57BL/6 mice (10 weeks old, National Cancer Institute Laboratories) were injected in the right flank with 200 μL of a single-cell suspension of Panc02 cells in non-supplemented RPMI medium (1 × 10^6 cells per mouse). Treatment began when the mean tumor diameter was ~ 5 mm. […] Tumors were measured three times weekly in two dimensions with a digital caliper, and tumor volumes were calculated by the standard formula of Tumor Volume = Length x Width^2 × 0.5. All mice were euthanized when tumors reached a diameter of 15 mm or had ulcerated.

KP02 cells = test: MTT cell viability, KP02; format: cell-based, mouse; conditions: 24 h treatment, viability relative to vehicle
Description: as §1, §2

BxPC3 cells [1] = test: MitoSOX Red mitochondrial superoxide by flow cytometry, BxPC3; format: cell-based, human; conditions: 50 μM, 2 h
Description: (§3) MitoSOX™ Red reagent is a novel fluorogenic dye specifically targeted to mitochondria in live cells. Oxidation of MitoSOX™ Red reagent by superoxide produces red fluorescence. Mitochondrial superoxide is generated as a byproduct of oxidative phosphorylation. […] MitoSOX™ Red reagent is readily oxidized by superoxide but not by other ROS- or reactive nitrogen species (RNS)–generating systems. Panc02, AsPC-1, KP-2 or BxPC3 cells were seeded into 12-well plates 24 h before treatment with sigma-2 ligands (50 μM) for 2 h at 37°C in presence or absence of α-tocopherol (100 μM) followed by staining with MitoSOX™ Red (5 μM). Two hours after red dye addition, the cells were washed twice with PBS and harvested with trypsin/EDTA buffer. The cells were washed twice with PBS before analysis with FACSCalibur (BD Bioscience, San Jose, CA). The oxidation product of MitoSOX™ Red by mitochondrial superoxide fluoresces with an emission maximus of 580 nm and was detected in the FL3 channel. Experiment was performed in triplicates.

[2] = Toxicity evaluation on mice not bearing tumor (CBC, serum chemistry, pathology); format: in vivo, C57BL/6 mice; conditions: for Off-target effects by necropsy and laboratory evaluations: naïve C57BL/6 mice, continuous daily treatment
Description: […] Mice from each treatment cohort were assessed for pathologic evaluation (Digestive Diseases Research Core Center at our institution). Blood was collected for complete blood count (CBC) and biochemical analysis (AST, ALT, BUN, total protein, glucose and Cr). Organs were examined grossly and histologically.

caspase-3 = test: Caspase-Glo caspase-3 activity in Panc02 cells; format: cell-based, mouse; conditions: 200 μM, 5 h
Description: Caspase-3 activity was measured in Panc02 cell lines with a Caspase-Glo® Assay Systems (Promega) according to protocol in which the reagent contain luminogenic caspase substrates that cleaved by activated caspase. […] The contents were then mixed using plate shaker for 30 s, and incubated at room temperature for 90 min. Luminescence signal was measured using multi-mode microplate reader (BioTek). Assay was performed in triplicates, and caspase activity was plotted compared cells treated with DMSO as a control.

BxPC3 cells [3] = test: MTT cell viability, BxPC3; format: cell-based, human; conditions: 24 h treatment, viability relative to vehicle
Description: as §1, §2

Panc02 cells [4] = test: MTT cell viability, Panc02; format: cell-based; conditions: Mus musculus, 24 h treatment, viability relative to vehicle
Description: as §1, §2

MIAPaCa-2 cells = test: MTT cell viability, MIAPaCa-2; format: cell-based; conditions: Homo sapiens, MIA PaCa-2, 24 h treatment, viability relative to vehicle
Description: as §1, §2

KCKO cells = test: MTT cell viability, KCKO; format: cell-based; conditions: Mus musculus, 24 h treatment, viability relative to vehicle
Description: as §1, §2

AsPC1 cells = test: MitoSOX Red mitochondrial superoxide by flow cytometry, AsPC1; format: cell-based, human; conditions: 50 μM, 2 h
Description: as §3

AsPC-1 cells = test: MTT cell viability, AsPC-1; format: cell-based; conditions: Homo sapiens, ASPC1, 24 h treatment, viability relative to vehicle
Description: as §1, §2

Panc02 cells [5] = test: MitoSOX Red mitochondrial superoxide by flow cytometry, Panc02; format: cell-based, mouse; conditions: Panc02 cells, 50 μM, 2 h
Description: as §3

Panc02 cells [6] = test: ROS interference in cell viability (MTT with antioxidants); format: cell-based, mouse; conditions: Panc02 cells, ligand 50 μM with NAC 100 μM, 24 h
Description: The interference of ROS in cell viability was indirectly determined by MTT assay reported above at 24 h. On day 1, Panc02 cells were plated at a density of 2 × 10^4 cells/well in opaque 96-well, clear-bottom plates 24 h prior to treatment. On day 2, cells were treated with the drugs (50 μM) in the presence or absence of α-tocopherol (100 μM) or N-Acetyl-L-cysteine (100 μM). After incubation (24 h) with drugs, MTT assay was performed as above.

EC50 (Panc-1 cells): > 100 µM | EC50 (BxPC3 cells [3]): 42 µM | EC50 (BxPC3 cells [3]; Homo sapiens, BXPC-3, 24 h): ~45 µM | EC50 (Panc02 cells [4]): 37 µM | EC50 (MIAPaCa-2 cells): 29 µM | EC50 (AsPC-1 cells): 98 µM
SMILES: c1ccc2c(c1)c1ccccc1n2CCCN1CCN(C2CCCCC2)CC1 [F281, 1-Cyclohexyl-4-[3-(9H-carbazol-9-yl)propyl]piperazine]
Ki (sigma-2 receptor; ref Ferorelli et al., 2007 [27]): 0.0126 µM | Effect on tumor volume (in words) (Panc02 tumors; Panc02 s.c. in female C57BL/6): did not confer a significantly different tumor volume than vehicle alone | EC50 (KP02 cells): 49 µM | EC50 (KP02 cells; Mus musculus, 24 h): ~45 µM | Mitochondrial superoxide generation in BxPC3 (BxPC3 cells [1]): generated some mitochondrial superoxide | Off-target effects by necropsy and laboratory evaluations [2]: no major off-target effects | Caspase-3 activation (in words) (caspase-3; compared to DMSO control): did not activate at all | EC50 (KCKO cells): 62 µM | Mitochondrial superoxide generation in AsPC1 (AsPC1 cells): generated some mitochondrial superoxide

SMILES: Fc1cccc(F)c1[C@H]1CC[C@@H](N2CCN(C3CCCCC3)CC2)CC1 [PB282]
Ki (sigma-2 receptor; ref Abate, et al., 2011 [28]): 0.0141 µM | EC50 (Panc-1 cells): > 100 µM | Effect on tumor volume (in words) (Panc02 tumors; Panc02 s.c. in female C57BL/6): decreased tumor volume similar to gemcitabine alone | Mean tumor volume following conclusion of treatment (Panc02 tumors; Panc02 s.c. in female C57BL/6, i.p. daily for two weeks (gemcitabine once weekly), vehicle mean = 924 mm^3): 483 mm^3 | Median survival (Panc02 tumors; Panc02 tumor-bearing C57BL/6 mice, treatment discontinued on day 15, DMSO (vehicle) 23 days): 29 days | Increase in MitoSOX fluorescence intensity compared to cells treated with DMSO (Panc02 cells [5]): 6.7 fold | EC50 (KP02 cells; Mus musculus, 24 h): > 100 µM | Off-target effects by necropsy and laboratory evaluations [2]: no major off-target effects | Creatinine ([2]; not tumor-bearing C57BL/6 mice, n = 3, daily i.p., 5 days, control 0.34 ± 0.02): 0.35 ± 0.03 mg/dL | AST ([2]; not tumor-bearing C57BL/6 mice, n = 3, daily i.p., 5 days, control 5.6 ± 0.05): 5.5 ± 0.07 μ/L | RBC ([2]; not tumor-bearing C57BL/6 mice, n = 3, daily i.p., 5 days, control 7.14 ± 0.1): 9.91 ± 0.31 10^6/μL | WBC ([2]; not tumor-bearing C57BL/6 mice, n = 3, daily i.p., 5 days, control 10.58 ± 0.2): 5.78 ± 0.78 10^3/μL | HGB ([2]; not tumor-bearing C57BL/6 mice, n = 3, daily i.p., 5 days, control 10.7 ± 0.7): 15 ± 0.4 g/dL | MCH ([2]; not tumor-bearing C57BL/6 mice, n = 3, daily i.p., 5 days, control 15 ± 0.54): 15.15 ± 0.05 pg | BUN ([2]; not tumor-bearing C57BL/6 mice, n = 3, daily i.p., 5 days, control 27 ± 0.4): 24.5 ± 0.5 mg/dL | MCHC ([2]; not tumor-bearing C57BL/6 mice, n = 3, daily i.p., 5 days, control 29.2 ± 1.21): 29.4 ± 0.3% | HCT ([2]; not tumor-bearing C57BL/6 mice, n = 3, daily i.p., 5 days, control 36.6 ± 0.08): 51.1 ± 1.9% | MCV ([2]; not tumor-bearing C57BL/6 mice, n = 3, daily i.p., 5 days, control 51.2 ± 0.32): 51.55 ± 0.35 fL | ALT ([2]; not tumor-bearing C57BL/6 mice, n = 3, daily i.p., 5 days, control 260 ± 21): 221 ± 63 μ/L | Platelets ([2]; not tumor-bearing C57BL/6 mice, n = 3, daily i.p., 5 days, control 486 ± 67): 649.5 ± 167.5 10^3/μL | Increase of caspase-3 activity compared to cells treated with DMSO vehicle (caspase-3): 11.8 fold | EC50 (BxPC3 cells [3]; Homo sapiens, BXPC-3, 24 h): > 100 µM | EC50 (Panc02 cells [4]): > 100 µM | Cell death on co-treatment with NAC (Panc02 cells [6]): even higher levels of cell death | EC50 (MIAPaCa-2 cells): 51 µM | EC50 (KCKO cells): 90 µM | EC50 (AsPC-1 cells): > 100 µM
